Laboratory results reported in ChEMBL document CHEMBL3045771, “Structure-Activity Relationships of Enantiomers of the Azole Fungicide Ipconazole and Its Related Compounds” (1998).
Values after ≈ are worked out from the molar mass of the structure shown.

What was measured:
Assay type in all cases: functional
Pyricularia oryzae = assay: Antifungal activity against Magnaporthe oryzae on potato sucrose agar medium at 28 or 20 degC for 2 or 3 days
[1] = test system: Fusarium oxysporum f. sp. cucumerinum; assay: Antifungal activity against Fusarium oxysporum f. sp. cucumerinum on potato sucrose agar medium at 28 or 20 degC for 2 or 3 days
Cercospora beticola = assay: Antifungal activity against Cercospora beticola on potato sucrose agar medium at 28 or 20 degC for 2 or 3 days
Alternaria mali = assay: Antifungal activity against Alternaria mali on potato sucrose agar medium at 28 or 20 degC for 2 or 3 days
[2] = test system: Colletotrichum gloeosporioides; assay: Antifungal activity against Glomerella cingulata on potato sucrose agar medium at 28 or 20 degC for 2 or 3 days
Monilinia fructicola = assay: Antifungal activity against Monilinia fructicola on potato sucrose agar medium at 28 or 20 degC for 2 or 3 days
Sclerotinia sclerotiorum = assay: Antifungal activity against Sclerotinia sclerotiorum on potato sucrose agar medium at 28 or 20 degC for 2 or 3 days
Rhizoctonia solani = assay: Antifungal activity against Rhizoctonia solani on potato sucrose agar medium at 28 or 20 degC for 2 or 3 days
Fusarium fujikuroi = assay: Antifungal activity against Fusarium fujikuroi on potato sucrose agar medium at 28 or 20 degC for 2 or 3 days
Bipolaris oryzae = assay: Antifungal activity against Bipolaris oryzae on potato sucrose agar medium at 28 or 20 degC for 2 or 3 days
Triticum aestivum = assay: Inhibition of Triticum aestivum (wheat) Nourin 64 growth assessed as first leaf sheath length of seedlings measured as growth rate at 125 ug/ml for 24 hr relative to control; parameters: scale not given: the % may be the effect or the level left
Botrytis cinerea = assay: Antifungal activity against Botryotinia fuckeliana on potato sucrose agar medium at 28 or 20 degC for 2 or 3 days
Colletotrichum lagenaria = assay: Antifungal activity against Colletotrichum lagenaria on potato sucrose agar medium at 28 or 20 degC for 2 or 3 days
Cucumis sativus = assay: Inhibition of Cucumis sativus (cucumber) growth assessed as stem length of first leaf of seedlings measured as growth rate at 125 ug/ml for 24 hr relative to control; parameters: scale not given: the % may be the effect or the level left

SMILES: CC[C@@H]1CC[C@H](Cc2ccc(Cl)cc2)[C@@]1(O)Cn1cncn1
- MIC (Pyricularia oryzae): 3.1 µg/mL (≈ 9.69 µM)
- MIC [1]: 6.3 µg/mL (≈ 19.7 µM)
- MIC (Cercospora beticola): 50 µg/mL (≈ 156 µM)
- MIC (Alternaria mali): 25 µg/mL (≈ 78.2 µM)
- MIC [2]: 0.4 µg/mL (≈ 1.25 µM)
- MIC (Monilinia fructicola): < 0.2 µg/mL
- MIC (Sclerotinia sclerotiorum): 0.8 µg/mL (≈ 2.5 µM)
- MIC (Rhizoctonia solani): 100 µg/mL (≈ 313 µM)
- MIC (Fusarium fujikuroi): < 0.2 µg/mL
- MIC (Bipolaris oryzae): 25 µg/mL (≈ 78.2 µM)
- Activity (Triticum aestivum): 104%
- MIC (Botrytis cinerea): 0.8 µg/mL (≈ 2.5 µM)
- MIC (Colletotrichum lagenaria): 1.6 µg/mL (≈ 5 µM)
- Activity (Cucumis sativus): 100%

SMILES: CC[C@@H]1CC[C@@H](Cc2ccc(Cl)cc2)[C@]1(O)Cn1cncn1
- MIC (Pyricularia oryzae): 13 µg/mL (≈ 40.6 µM)
- MIC [1]: > 100 µg/mL
- MIC (Cercospora beticola): 50 µg/mL (≈ 156 µM)
- MIC (Alternaria mali): 100 µg/mL (≈ 313 µM)
- MIC [2]: 13 µg/mL (≈ 40.6 µM)
- MIC (Monilinia fructicola): 0.4 µg/mL (≈ 1.25 µM)
- MIC (Sclerotinia sclerotiorum): 25 µg/mL (≈ 78.2 µM)
- MIC (Rhizoctonia solani): 100 µg/mL (≈ 313 µM)
- MIC (Fusarium fujikuroi): 25 µg/mL (≈ 78.2 µM)
- MIC (Bipolaris oryzae): 25 µg/mL (≈ 78.2 µM)
- Activity (Triticum aestivum): 69%
- MIC (Botrytis cinerea): 13 µg/mL (≈ 40.6 µM)
- MIC (Colletotrichum lagenaria): 100 µg/mL (≈ 313 µM)
- Activity (Cucumis sativus): 110%

SMILES: CC[C@H]1CC[C@H](Cc2ccc(Cl)cc2)[C@@]1(O)Cn1cncn1
- MIC (Pyricularia oryzae): 1.6 µg/mL (≈ 5 µM)
- MIC [1]: 1.6 µg/mL (≈ 5 µM)
- MIC (Cercospora beticola): 1.6 µg/mL (≈ 5 µM)
- MIC (Alternaria mali): 1.6 µg/mL (≈ 5 µM)
- MIC [2]: < 0.2 µg/mL
- MIC (Monilinia fructicola): < 0.2 µg/mL
- MIC (Sclerotinia sclerotiorum): < 0.2 µg/mL
- MIC (Rhizoctonia solani): 50 µg/mL (≈ 156 µM)
- MIC (Fusarium fujikuroi): < 0.2 µg/mL
- MIC (Bipolaris oryzae): 6.3 µg/mL (≈ 19.7 µM)
- Activity (Triticum aestivum): 100%
- MIC (Botrytis cinerea): < 0.2 µg/mL
- MIC (Colletotrichum lagenaria): 3.1 µg/mL (≈ 9.69 µM)
- Activity (Cucumis sativus): 123%

SMILES: CCC[C@H]1CC[C@@H](Cc2ccc(Cl)cc2)[C@]1(O)Cn1cncn1
- MIC (Pyricularia oryzae): 50 µg/mL (≈ 150 µM)
- MIC [1]: > 100 µg/mL
- MIC (Cercospora beticola): > 100 µg/mL
- MIC (Alternaria mali): > 100 µg/mL
- MIC [2]: > 100 µg/mL
- MIC (Monilinia fructicola): 13 µg/mL (≈ 38.9 µM)
- MIC (Sclerotinia sclerotiorum): > 100 µg/mL
- MIC (Rhizoctonia solani): 100 µg/mL (≈ 300 µM)
- MIC (Fusarium fujikuroi): > 100 µg/mL
- MIC (Bipolaris oryzae): 100 µg/mL (≈ 300 µM)
- Activity (Triticum aestivum): 97%
- MIC (Botrytis cinerea): 50 µg/mL (≈ 150 µM)
- MIC (Colletotrichum lagenaria): > 100 µg/mL
- Activity (Cucumis sativus): 104%

SMILES: CCC[C@@H]1CC[C@H](Cc2ccc(Cl)cc2)[C@@]1(O)Cn1cncn1
- MIC (Pyricularia oryzae): 6.3 µg/mL (≈ 18.9 µM)
- MIC [1]: 6.3 µg/mL (≈ 18.9 µM)
- MIC (Cercospora beticola): 100 µg/mL (≈ 300 µM)
- MIC (Alternaria mali): > 100 µg/mL
- MIC [2]: 3.1 µg/mL (≈ 9.29 µM)
- MIC (Monilinia fructicola): 0.4 µg/mL (≈ 1.2 µM)
- MIC (Sclerotinia sclerotiorum): 3.1 µg/mL (≈ 9.29 µM)
- MIC (Rhizoctonia solani): 100 µg/mL (≈ 300 µM)
- MIC (Fusarium fujikuroi): 1.6 µg/mL (≈ 4.79 µM)
- MIC (Bipolaris oryzae): 25 µg/mL (≈ 74.9 µM)
- Activity (Triticum aestivum): 102%
- MIC (Botrytis cinerea): 1.6 µg/mL (≈ 4.79 µM)
- MIC (Colletotrichum lagenaria): 50 µg/mL (≈ 150 µM)
- Activity (Cucumis sativus): 110%

SMILES: CCCC[C@H]1CC[C@@H](Cc2ccc(Cl)cc2)[C@]1(O)Cn1cncn1
- MIC (Pyricularia oryzae): 25 µg/mL (≈ 71.9 µM)
- MIC [1]: > 100 µg/mL
- MIC (Cercospora beticola): > 100 µg/mL
- MIC (Alternaria mali): > 100 µg/mL
- MIC [2]: > 100 µg/mL
- MIC (Monilinia fructicola): 50 µg/mL (≈ 144 µM)
- MIC (Sclerotinia sclerotiorum): > 100 µg/mL
- MIC (Rhizoctonia solani): 100 µg/mL (≈ 287 µM)
- MIC (Fusarium fujikuroi): > 100 µg/mL
- MIC (Bipolaris oryzae): > 100 µg/mL
- Activity (Triticum aestivum): 112%
- MIC (Botrytis cinerea): > 100 µg/mL
- MIC (Colletotrichum lagenaria): > 100 µg/mL
- Activity (Cucumis sativus): 117%

SMILES: CCCC[C@@H]1CC[C@H](Cc2ccc(Cl)cc2)[C@@]1(O)Cn1cncn1
- MIC (Pyricularia oryzae): 6.3 µg/mL (≈ 18.1 µM)
- MIC [1]: 50 µg/mL (≈ 144 µM)
- MIC (Cercospora beticola): > 100 µg/mL
- MIC (Alternaria mali): > 100 µg/mL
- MIC [2]: 6.3 µg/mL (≈ 18.1 µM)
- MIC (Monilinia fructicola): 6.3 µg/mL (≈ 18.1 µM)
- MIC (Sclerotinia sclerotiorum): 3.1 µg/mL (≈ 8.91 µM)
- MIC (Rhizoctonia solani): 100 µg/mL (≈ 287 µM)
- MIC (Fusarium fujikuroi): 3.1 µg/mL (≈ 8.91 µM)
- MIC (Bipolaris oryzae): 25 µg/mL (≈ 71.9 µM)
- Activity (Triticum aestivum): 98%
- MIC (Botrytis cinerea): 3.1 µg/mL (≈ 8.91 µM)
- MIC (Colletotrichum lagenaria): > 100 µg/mL
- Activity (Cucumis sativus): 121%

SMILES: CC(C)C[C@H]1CC[C@@H](Cc2ccc(Cl)cc2)[C@]1(O)Cn1cncn1
- MIC (Pyricularia oryzae): 100 µg/mL (≈ 287 µM)
- MIC [1]: > 100 µg/mL
- MIC (Cercospora beticola): > 100 µg/mL
- MIC (Alternaria mali): > 100 µg/mL
- MIC [2]: > 100 µg/mL
- MIC (Monilinia fructicola): > 100 µg/mL
- MIC (Sclerotinia sclerotiorum): > 100 µg/mL
- MIC (Rhizoctonia solani): > 100 µg/mL
- MIC (Fusarium fujikuroi): > 100 µg/mL
- MIC (Bipolaris oryzae): > 100 µg/mL
- Activity (Triticum aestivum): 115%
- MIC (Botrytis cinerea): > 100 µg/mL
- MIC (Colletotrichum lagenaria): > 100 µg/mL
- Activity (Cucumis sativus): 104%

SMILES: CC(C)C[C@@H]1CC[C@H](Cc2ccc(Cl)cc2)[C@@]1(O)Cn1cncn1
- MIC (Pyricularia oryzae): 6.3 µg/mL (≈ 18.1 µM)
- MIC [1]: > 100 µg/mL
- MIC (Cercospora beticola): > 100 µg/mL
- MIC (Alternaria mali): > 100 µg/mL
- MIC [2]: 3.1 µg/mL (≈ 8.91 µM)
- MIC (Monilinia fructicola): 3.1 µg/mL (≈ 8.91 µM)
- MIC (Sclerotinia sclerotiorum): 3.1 µg/mL (≈ 8.91 µM)
- MIC (Rhizoctonia solani): > 100 µg/mL
- MIC (Fusarium fujikuroi): 3.1 µg/mL (≈ 8.91 µM)
- MIC (Bipolaris oryzae): 50 µg/mL (≈ 144 µM)
- Activity (Triticum aestivum): 112%
- MIC (Botrytis cinerea): 1.6 µg/mL (≈ 4.6 µM)
- MIC (Colletotrichum lagenaria): 100 µg/mL (≈ 287 µM)
- Activity (Cucumis sativus): 109%
